In patent US20210292330A1, “PYRROLIDINE-FUSED HETEROCYCLES” (Erasca, Inc., priority 2020, published 2021):

Biological target: T1, KRAS 4B G12C protein (Homo sapiens, UniProt P01116, G12C)
T1 construct: This protein contained 188 amino acids in total, including an N-terminal 6-Histidine tag; made in house; host or cells: E. coli BL21
Assay: In vitro covalent adduct formation (CAF) assay by LC-MS
Type: binding
Conditions: compound 10 μM, protein 5 μM, 22° C., percentage of protein bound by the compound
In short: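 Percent of protein covalently modified was quantified from intact-mass LC-MS ratios of free versus adducted protein, adducts within 1 Da of expected mass. Reactions: 10 μM compound, 5 μM His-TEV-KRAS 4B G12C (1-169) in TBS pH 7.4, 4% DMSO, 22° C., one hour, run in duplicate.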

Row | Compound | CAF (10 minutes/60 minutes) at 10 micromolar: 10 minutes | CAF (10 minutes/60 minutes) at 10 micromolar: 60 minutes
1 | C=CC(=O)N1CCN(c2nc(OC[C@@H]3C[C@H](F)CN3C)nc3c2CN(C2CCc4ccccc42)C3)C[C@@H]1CC#N (stereo partly drawn) [1-128] | 52% | 63%
2 | C=CC(=O)N1CCN(c2nc(OC[C@@H]3CCCN3C)nc3c2CN(Cc2cc(OC(F)F)ccc2Cl)C3)C[C@@H]1CC#N [1-53] | 40% | 86%
3 | C=CC(=O)N1CCN(c2nc(OC[C@@H]3CCCN3C3CC3)nc3c2CN(C2CCc4ccccc42)C3)C[C@@H]1CC#N (stereo partly drawn) [1-198, 2-((2S)-1-acryloyl-4-(2-(((S)-1-cyclopropylpyrrolidin-2-yl)methoxy)-6-(2,3-dihydro-1H-inden-1-yl)-6,7-dihydro-5H-pyrrolo[3,4-d]pyrimidin-4-yl)piperazin-2-yl)acetonitrile] | 15% | 18%
4 | C=CC(=O)N1CCN(c2nc(OC[C@@H]3CCCN3C)nc3c2CN(Cc2cc(Cl)ccc2Cl)C3)[C@@H](C)C1 [1-41] | 3% | 22%
5 | C=CC(=O)N1CCN(c2nc(OCCN3CCOCC3)nc3c2CN(Cc2cc(O)ccc2Cl)C3)C[C@@H]1CC#N [1-134] | 98%/ 98% | 98%/ 98%
6 | C=C(F)C(=O)N1CCN(c2nc(OC[C@@H]3CCCN3C)nc3c2CN(C2CCc4ccccc42)C3)C[C@@H]1CC#N (stereo partly drawn) [1-109] | 48% | 68%
7 | C=CC(=O)N1CCN(c2nc(OC[C@@H]3CCCN3C)nc3c2CN(C2CCc4ccccc42)C3)CC1 (stereo partly drawn) [1-190] | 6% | 26%
8 | C=CC(=O)N1CCN(c2nc(OC[C@@H]3CCCN3C)nc3c2CN(Cc2c(Cl)c(F)cc4[nH]ncc24)C3)C[C@@H]1CC#N [1-183] | 63% | 93%
9 | C=CC(=O)N1CC2CCC1CN2c1nc(OC[C@@H]2CCCN2C)nc2c1CN(Cc1cc(O)ccc1Cl)C2 (stereo partly drawn) [1-160] | 34% | 67%
10 | C=CC(=O)N1CCN(c2nc(OC[C@@H]3CCCN3C)nc3c2CN(Cc2cccc4c2CCO4)C3)C[C@@H]1CC#N [1-143] | 48% | 70%
11 | C=CC(=O)N1CCN(c2nc(OC[C@@H]3CCCN3C)nc3c2CN(Cc2cc(Cl)ccc2C)C3)C[C@@H]1CC#N [1-67] | 70% | 92%
12 | C=CC(=O)N1CCN(c2nc(OC[C@@H]3CCCN3C)nc3c2CN(C2CCc4ccccc42)C3)[C@@H](C#N)C1 (stereo partly drawn) [1-150] | 21% | 31%
13 | C=CC(=O)N1CCN(c2nc(OC[C@@H]3CCCN3C)nc3c2CN(Cc2c(F)cccc2Cl)C3)C[C@@H]1CC#N [1-112] | 98% | 99%
14 | C=CC(=O)N1CCN(c2nc(OC[C@@H]3CCCN3C)nc3c2CN(C2CCCc4ccccc42)C3)C[C@@H]1CC#N (stereo partly drawn) [1-52 (2nd isomer)] | 76% | 91%
15 | C=CC(=O)N1CCN(c2nc(OC[C@@H]3CCCN3C)nc3c2CN(Cc2cccc4ocnc24)C3)C[C@@H]1CC#N [1-204] | 46% | 84%
16 | C=C(F)C(=O)N1CCN(c2nc(OC[C@@H]3CCCN3C)nc3c2CN(Cc2c(CC)ccc(O)c2C)C3)C[C@@H]1CC#N [1-253] | 93% | 94%
17 | C=CC(=O)N1CCN(c2nc(OC[C@@H]3CCCN3C)nc3c2CN(Cc2ccccc2CC(C)C)C3)C[C@@H]1CC#N [1-191] | 52% | 73%
18 | C=CC(=O)N1CCN(c2nc(OC[C@@H]3CCCN3C)nc3c2CN(C2CCc4ccccc42)C3)C[C@H]1C#N (stereo partly drawn) [1-145] | 60% | 74%
19 | C=CC(=O)N1CCN(c2nc(OC[C@@H]3CCCN3CC(C)C)nc3c2CN(C2CCc4ccccc42)C3)C[C@@H]1CC#N (stereo partly drawn) [1-192] | 53% | 65%
20 | C=C(F)C(=O)N1CCN(c2nc(OC[C@@H]3CCCN3C)nc3c2CN(Cc2cc(Cl)ccc2C(F)(F)F)C3)C[C@@H]1CC#N [1-222] | 3% | 24%
21 | C=CC(=O)N1CCN(c2nc(SC)nc3c2CN(C2CCc4ccccc42)C3)C[C@@H]1CC#N (stereo partly drawn) [1-136] | 16% | 56%

Row | Compound | CAF (10 minutes/60 minutes) at 10 micromolar: 10 minutes | CAF (10 minutes/60 minutes) at 10 micromolar: 60 minutes
22 | C=CC(=O)N1CCN(c2nc(OCC3CCCC3)nc3c2CN(Cc2c(O)cccc2F)C3)C[C@@H]1CC#N [1-71] | 9% | 45%
23 | C=CC(=O)N1CCN(c2nc(OC[C@@H]3CCCN3C)nc3c2CN(C(C)c2c(F)cccc2OC)C3)C[C@@H]1CC#N (stereo partly drawn) [1-97] | 95% | 98%
24 | C=C(F)C(=O)N1CCN(c2nc(OC[C@@H]3CCCN3C)nc3c2CN(C2CCCc4cccc(Cl)c42)C3)C[C@@H]1CC#N (stereo partly drawn) [1-126, 2-[(2S)-4-[6-(8-chloro-1,2,3,4-tetrahydronaphthalen-1-yl)-2-{[(2S)-1-methylpyrrolidin-2-yl]methoxy}-5H,7H-pyrrolo[3,4-d]pyrimidin-4-yl]-1-(2-fluoroprop-2-enoyl)piperazin-2-yl]acetonitrile] | 53% | 88%
25 | C=CC(=O)N1CCN(c2nc(OCCCN3CCOCC3)nc3c2CN(C2CCc4ccccc42)C3)C[C@@H]1CC#N (stereo partly drawn) [1-131] | 76% | 97%
26 | C=CC(=O)N1CCN(c2nc(OC[C@@H]3CCCN3C)nc3c2CN(C2CCc4ccccc42)C3)[C@H](C#N)C1 (stereo partly drawn) [1-156] | 11% | 29%
27 | C=CC(=O)N1CCN(c2nc(OC[C@@H]3CCCN3C)nc3c2CN(C2CCc4ccccc42)C3)C[C@H]1C(N)=O (stereo partly drawn) [1-163] |  | NA/ 55%
28 | C=CC(=O)N1CCN(c2nc(OC[C@@H]3CCCN3C)nc3c2CN(C(=O)c2cc(O)ccc2C)C3)[C@@H](C)C1 [1-23, 1-((S)-4-(6-(5-hydroxy-2-methylbenzoyl)-2-(((S)-1-methylpyrrolidin-2-yl)methoxy)-6,7-dihydro-5H-pyrrolo[3,4-d]pyrimidin-4-yl)-3-methylpiperazin-1-yl)prop-2-en-1-one] | 9% | 35%
29 | C=CC(=O)N1CCN(c2nc(OC[C@@H]3CCCN3C)nc3c2CN(C2CCc4ccccc42)C3)C[C@@H]1CC(F)(F)F (stereo partly drawn) [1-100] | 0% | 5%
30 | C=CC(=O)N1CCN(c2nc(OC[C@@H]3CCCN3C)nc3c2CN(Cc2ccc(F)cc2C(C)C)C3)C[C@@H]1CC#N [1-196] | 41% | 52%
31 | C=CC(=O)N1CCN(c2nc(OC[C@@H]3CCCN3C)nc3c2CN(Cc2ccccc2)C3)C[C@@H]1CC#N [1-77] | 27% | 43%
32 | C=C(F)C(=O)N1CCN(c2nc(OCc3cncn3C)nc3c2CN(C2CCc4ccccc42)C3)C[C@@H]1CC#N (stereo partly drawn) [1-140] | 0%/ 0% | 0%/ 0%
33 | C=CC(=O)N1CCN(c2nc(OC[C@@H]3CCCN3C)nc3c2CN(Cc2c(C)cccc2C)C3)C[C@@H]1CC#N [1-29] | 98% | 99%
34 | C=CC(=O)N1CCN(c2nc(Oc3cccc4c3CN(C)C4)nc3c2CN(C2CCc4ccccc42)C3)C[C@@H]1CC#N (stereo partly drawn) [1-174] | 9% | 28%
35 | C=CC(=O)N1CCN(c2nc(OC[C@@H]3CCCN3C)nc3c2CN(Cc2cccc4[nH]ncc24)C3)C[C@@H]1CC#N [1-108] | 84% | 97%
36 | C=CC(=O)N1CCN(c2nc(OC[C@@H]3CCCN3C)nc3c2CN(Cc2cc(F)cc(F)c2)C3)C[C@@H]1CC#N [1-12] | 28% | 74%
37 | C=CC(=O)N1[C@H](C)CN(c2nc(OC[C@@H]3CCCN3C)nc3c2CN(Cc2c(Cl)ccc(O)c2C)C3)C[C@@H]1C [1-333] | 17% | 59%
38 | C=CC(=O)N1CCN(c2nc(OC[C@@H]3CCCN3C)nc3c2CN(C2CCc4ccccc42)C3)C2CS(=O)(=O)CC21 (stereo partly drawn) [1-210] | 0%/ 0% | 0%/ 0%
39 | C=C(F)C(=O)N1CCN(c2nc(OC[C@@H]3CCCN3C)nc3c2CN(C2CCc4ccc(Cl)c(Cl)c42)C3)C[C@@H]1CC#N (stereo partly drawn) [1-337] | 27% | 74%
40 | C=CC(=O)N1CCN(c2nc(OC[C@@H]3CCCN3C)nc3c2CN(Cc2c(Cl)ccc4c2CCCO4)C3)C[C@@H]1CC#N [1-158] | 49% | 89%
41 | C=CC(=O)N1CCN(c2nc(OC[C@@H]3CCCN3C)nc3c2CN(C2CCc4ccccc42)C3)C[C@@H]1C[S+](C)[O-] (stereo partly drawn) [1-209] | 0%/ 0% | 0%/ 0%
